{"source": "patent US5663196A", "about": "“Methods for treating neoplastic disorders” (Boston University, priority 1993, dated 1997)", "format_in_all_cases": "cell-based", "key": {"[1]": {"system": "EL-4 cells (type T lymphoma)", "experiment": "Trypan Blue cell viability, EL-4", "details": "Mus musculus, EL4, read-out: Trypan Blue Cell Viability (%)", "from_the_text": "(§1) 1) The Trypan Blue Dye Exclusion Test for monitoring ceil viability as described by Phillips, H. J., in Tissue Culture Methods and Applications; Kruse, P. F., Jr., Patterson, M. K., Eds.; Academic Press, New York, 1973, 406, and by Wu, Y. W., Chik, L. L., Knazek, R. A. Cancer Research 1989, 49, 3754. The results of this assay are expressed as a percentage of viable cells:\n(§2) [% viable cells]=[no. of alive cells]/[total no. of cells]×100\n(§3) where the total no. cells=dead cells+alive cells. The results are compared directly with an untreated control, which typically show a three-to-four-fold increase for cancer cells, and a two-fold increase for normal cells. Treatments resulting in [% viable cells] of <30% are considered cytotoxic. Therefore, the trypan blue dye exclusion test was used to assess the number of dead and alive cells using various cell lines upon treatment with the crude and purified agent. This test provides a simple clue to the acute or late onset of a cytotoxic response. Readings for this and all other in vitro assays were taken 48 hours after treatment with the unpurified agent, and also […] after treatment for the purified agent. Thus, the trypan blue dye exclusion assay functions to confirm whether or not the cells were viable at the time readings were taken for other bioassays."}, "[2]": {"system": "BW (BW5147) lymphoma cells", "experiment": "Trypan Blue cell viability, BW (BW5147)", "details": "Mus musculus, read-out: Trypan Blue Cell Viability (%)", "from_the_text": "as §1, §2, §3\n(§4) With the preferred purified active agent in hand, ^3 H-thymidine incorporation and trypan blue assays were initially performed at different dosages using LK and BW lymphoma ceil lines in order to confirm the activity of the preferred purified active agent, and to bracket the active concentration range for the preferred purified active agent. With a molecular weight of 328, a 1 μg/mL solution corresponds to 3 μM concentration. In addition, the time course of cell viability in the trypan blue assay was also monitored in order to best optimize subsequent assays to ensure that the cells were still viable at the time of measurement, and to ensure a nontoxic response of the cells to the agent. Toxicity of the agent would have been observed as cell death within 2 hours. The trypan blue assays (Table 7), run at 30 μM and 3 μM of purified agent (10 and 1 μg/mL, respectively), indicated excellent cell viability after 24 hours, though with a significant drop in viability after 48 hours at a 30 μM dose of preferred purified active agent. Consequently the results of the in vitro assays employing purified agent were all recorded after 24 hours. In the ^3 H-thymidine incorporation assay (Table 8), dosages ranging from 0.1 to 250 μg/mL were examined."}, "LK lymphoma cells": {"system": "LK lymphoma cells", "experiment": "Trypan Blue cell viability, LK", "details": "Mus musculus, read-out: Trypan Blue Cell Viability (%)", "from_the_text": "as §1, §2, §3, §4"}, "P815 cells (mastocytoma)": {"system": "P815 cells (mastocytoma)", "experiment": "Trypan Blue cell viability, P815", "details": "Mus musculus, P815, read-out: Trypan Blue Cell Viability (%)", "from_the_text": "as §1, §2, §3"}, "C7 cloned T-cells": {"system": "C7 cloned T-cells", "experiment": "Trypan Blue cell viability, C7", "details": "Mus musculus, read-out: Trypan Blue Cell Viability (%)", "from_the_text": "as §1, §2, §3\nEach of these three fractions were then tested in the trypan blue and ^3 H-thymidine incorporation assays along with the original CsA as a control, against the LS cell line, which was the most sensitive of the cancer lines (Tables 3 and 4). […] The results of the trypan blue and ^3 H-thymidine incorporation assays against the three cell lines are compiled in Tables 5a-5f."}, "[3]": {"system": "CT26 cells (colon adenocarcinoma)", "experiment": "Trypan Blue cell viability, CT26", "details": "Mus musculus, CT26, read-out: Trypan Blue Cell Viability (%)", "from_the_text": "as §1, §2, §3\n(§5) The final in vitro assays performed with the preferred purified active agent were intended to examine the scope of the activity in the trypan blue assay against a wider range of tumor cell lines (Tables 10 and 11). These cell lines included a […] lymphoma BW8767, a BW mutant which is more resistant than the BW cell lines used in other assays, as evidenced by the results in Tables 10 and 11."}, "[4]": {"system": "RDM-4 cells (type T lymphoma)", "experiment": "Trypan Blue cell viability, RDM-4", "details": "Mus musculus, read-out: Trypan Blue Cell Viability (%)", "from_the_text": "as §1, §2, §3, §5"}}, "note": "Read-outs that look alike come from different tables or passages of the source.", "data": [{"smiles": "CC1=C2C(=O)C=C(CO)[C@@H]2[C@H]2OC(=O)[C@@H](C)[C@@H]2[C@@H](O)C1", "note": "[11β,13-dihydrolactucin, 3,6-dimethyl-4-hydroxy-9-hydroxymethyl-3,3a,4,5,9a,9b-hexahydroazuleno[4,5-b]furan-2,7-dione]", "values": [{"measurement": "viability at 0.1 µg/mL", "setting": "[1]", "value": 100, "unit": "%"}, {"measurement": "viability at 0.5 µg/mL", "setting": "[1]", "value": 100, "unit": "%"}, {"measurement": "viability at 1 µg/mL", "setting": "[1]", "value": 100, "unit": "%"}, {"measurement": "viability at 10 µg/mL", "setting": "[1]", "value": 100, "unit": "%"}, {"measurement": "viability at 1 µg/mL", "setting": "[2]; 2 h", "value": 100, "unit": "%"}, {"measurement": "viability at 10 µg/mL", "setting": "[2]; 2 h", "value": 100, "unit": "%"}, {"measurement": "viability at 1 µg/mL", "setting": "[2]; 5 h", "value": 100, "unit": "%"}, {"measurement": "viability at 10 µg/mL", "setting": "[2]; 5 h", "value": 100, "unit": "%"}, {"measurement": "viability at 1 µg/mL", "setting": "[2]; 12 h", "value": 100, "unit": "%"}, {"measurement": "viability at 10 µg/mL", "setting": "[2]; 12 h", "value": 100, "unit": "%"}, {"measurement": "viability at 1 µg/mL", "setting": "[2]; 24 h", "value": 100, "unit": "%"}, {"measurement": "viability at 10 µg/mL", "setting": "[2]; 24 h", "value": 85, "unit": "%"}, {"measurement": "viability at 1 µg/mL", "setting": "[2]; 36 h", "value": 90, "unit": "%"}, {"measurement": "viability at 10 µg/mL", "setting": "[2]; 36 h", "value": 72, "unit": "%"}, {"measurement": "viability at 1 µg/mL", "setting": "[2]; 48 h", "value": 90, "unit": "%"}, {"measurement": "viability at 10 µg/mL", "setting": "[2]; 48 h", "value": 60, "unit": "%"}, {"measurement": "viability at 0.1 µg/mL", "setting": "[2]", "value": 100, "unit": "%"}, {"measurement": "viability at 0.5 µg/mL", "setting": "[2]", "value": 100, "unit": "%"}, {"measurement": "viability at 1 µg/mL", "setting": "[2]", "value": 100, "unit": "%"}, {"measurement": "viability at 10 µg/mL", "setting": "[2]", "value": 80, "unit": "%"}, {"measurement": "viability at 1 µg/mL", "setting": "LK lymphoma cells; 2 h", "value": 100, "unit": "%"}, {"measurement": "viability at 10 µg/mL", "setting": "LK lymphoma cells; 2 h", "value": 100, "unit": "%"}, {"measurement": "viability at 1 µg/mL", "setting": "LK lymphoma cells; 5 h", "value": 100, "unit": "%"}, {"measurement": "viability at 10 µg/mL", "setting": "LK lymphoma cells; 5 h", "value": 100, "unit": "%"}, {"measurement": "viability at 1 µg/mL", "setting": "LK lymphoma cells; 12 h", "value": 100, "unit": "%"}, {"measurement": "viability at 10 µg/mL", "setting": "LK lymphoma cells; 12 h", "value": 100, "unit": "%"}, {"measurement": "viability at 1 µg/mL", "setting": "LK lymphoma cells; 24 h", "value": 100, "unit": "%"}, {"measurement": "viability at 10 µg/mL", "setting": "LK lymphoma cells; 24 h", "value": 85, "unit": "%"}, {"measurement": "viability at 1 µg/mL", "setting": "LK lymphoma cells; 36 h", "value": 90, "unit": "%"}, {"measurement": "viability at 10 µg/mL", "setting": "LK lymphoma cells; 36 h", "value": 72, "unit": "%"}, {"measurement": "viability at 1 µg/mL", "setting": "LK lymphoma cells; 48 h", "value": 90, "unit": "%"}, {"measurement": "viability at 10 µg/mL", "setting": "LK lymphoma cells; 48 h", "value": 60, "unit": "%"}, {"measurement": "viability at 0.1 µg/mL", "setting": "P815 cells (mastocytoma)", "value": 100, "unit": "%"}, {"measurement": "viability at 0.5 µg/mL", "setting": "P815 cells (mastocytoma)", "value": 100, "unit": "%"}, {"measurement": "viability at 1 µg/mL", "setting": "P815 cells (mastocytoma)", "value": 100, "unit": "%"}, {"measurement": "viability at 10 µg/mL", "setting": "P815 cells (mastocytoma)", "value": 80, "unit": "%"}, {"measurement": "viability at 0.1 µg/mL", "setting": "C7 cloned T-cells", "value": 100, "unit": "%"}, {"measurement": "viability at 0.5 µg/mL", "setting": "C7 cloned T-cells", "value": 100, "unit": "%"}, {"measurement": "viability at 1 µg/mL", "setting": "C7 cloned T-cells", "value": 100, "unit": "%"}, {"measurement": "viability at 10 µg/mL", "setting": "C7 cloned T-cells", "value": 90, "unit": "%"}, {"measurement": "viability at 0.1 µg/mL", "setting": "[3]", "value": 100, "unit": "%"}, {"measurement": "viability at 0.5 µg/mL", "setting": "[3]", "value": 100, "unit": "%"}, {"measurement": "viability at 1 µg/mL", "setting": "[3]", "value": 100, "unit": "%"}, {"measurement": "viability at 10 µg/mL", "setting": "[3]", "value": 100, "unit": "%"}, {"measurement": "viability at 0.1 µg/mL", "setting": "[4]", "value": 100, "unit": "%"}, {"measurement": "viability at 0.5 µg/mL", "setting": "[4]", "value": 100, "unit": "%"}]}]}
